In US11325899B2, “Benzofurane and benzothiophene derivatives as PGE2 receptor modulators” (IDORSIA PHARMACEUTICALS LTD, priority 2017, dated 2022):

target: T1, EP4 receptor (Homo sapiens, UniProt P35408); test: hEP4 cAMP assay (BT549 breast cancer cells, HTRF cAMP, PGE2 stimulation); assay type: cell-based; conditions: antagonistic activity, PGE2 6 nM (EC80)
T1 construct: BT549 breast cancer cells, express high endogenous EP4 levels and very low EP2 levels; host or cells: BT549 breast cancer cells
Method: The antagonistic activities of the compounds of formula (I) on the EP2 and EP4 receptors are also determined in accordance with the following experimental method.
Human tumor cell lines expressing endogenously either EP4 or EP2 are used and cAMP accumulation in cells upon PGE2 stimulation is monitored. SF295 glioblastoma cells express high endogenous EP2 and no EP4, whereas BT549 breast cancer cells, express high endogenous EP4 levels and very low EP2 levels.
As a detection method for cAMP the HTRF (homogeneous time resolved fluorescence) Cisbio kit (HTRF cAMP dynamic 2 kit 20′000 tests Cisbio Cat. #62AM4PEC) was used, which is based on a competitive immunoassay using a Cryptate-labeled anti-cAMP antibody and d2-labeled cAMP. Native cAMP produced by cells or unlabeled cAMP (for the standard curve) compete with exogenously added d2-labeled cAMP (acceptor) for binding to monoclonal anti-cAMP-Eu3+ Cryptate (donor). A FRET signal (Fluorescence Resonance Energy Transfer) is obtained only if the labeled anti-cAMP antibody binds the d2 labelled cAMP, thus the specific signal (i.e. energy transfer) is inversely proportional to the concentration of cAMP in the standard or sample.
The BT549 cells (NCI/No. 0507282) are detached from culture dishes with a cell dissociation buffer (Invitrogen, 13151-014), and collected in growing medium (GM: RPMI1640 (Invitrogen 21875)/10% FCS, 1% Penicilin/streptomycin). Cells are counted washed and resuspended in assay buffer (AB; HBSS, 20 mM HEPES, 0.2% BSA; 2 mM IBMX). 4′000 cells in 5 μl of AB are seeded per well of a small volume 384 well plate (black with flat bottom, Greiner 784076).
Stock solutions of test compounds are made at a concentration of 10 mM in DMSO, and serially diluted in DMSO to concentrations required for inhibition dose response curves (tested concentration range 30 μM-0.4 nM; 30 μM-0.015 nM or 1 uM-0.01 nM).
PGE2 (Cayman 14010, stock solution: 6 μM in DMSO) is used as agonist at 6 nM final concentration, corresponding to EC80.
Two point five microliters of diluted compounds are transferred into the assay plate. Plate is pre-incubated 45 minutes at room temperature. Subsequently, 2.5 microliters of PGE2 (final conc. 6 nM) are transferred into the assay plate. Plate is incubated 30 minutes at room temperature. Five μl of each donor (anti-cAMP cryptate) and acceptor (cAMP-d2) are added and the plate is incubated another hour at room temperature in the dark and then read using a BMG LABTECH PHERAstar reader (Excitation:337 nm, Emission:620 and 665 nm).
The obtained Delta F(fluorescence) values (665 nm/620 nM) are converted into % cAMP values using the measurements of the cAMP calibrator provided in the kit. For each compound concentration the percentage of cAMP compared to DMSO control value as average±STDEV (each concentration is measured in duplicate) is calculated.
IC50 values and curves are generated with XLfit software (IDBS) using Dose-Response One Site model 203. When compounds were measured multiple times, mean values are given.

T1 sequence (P35408 whole entry): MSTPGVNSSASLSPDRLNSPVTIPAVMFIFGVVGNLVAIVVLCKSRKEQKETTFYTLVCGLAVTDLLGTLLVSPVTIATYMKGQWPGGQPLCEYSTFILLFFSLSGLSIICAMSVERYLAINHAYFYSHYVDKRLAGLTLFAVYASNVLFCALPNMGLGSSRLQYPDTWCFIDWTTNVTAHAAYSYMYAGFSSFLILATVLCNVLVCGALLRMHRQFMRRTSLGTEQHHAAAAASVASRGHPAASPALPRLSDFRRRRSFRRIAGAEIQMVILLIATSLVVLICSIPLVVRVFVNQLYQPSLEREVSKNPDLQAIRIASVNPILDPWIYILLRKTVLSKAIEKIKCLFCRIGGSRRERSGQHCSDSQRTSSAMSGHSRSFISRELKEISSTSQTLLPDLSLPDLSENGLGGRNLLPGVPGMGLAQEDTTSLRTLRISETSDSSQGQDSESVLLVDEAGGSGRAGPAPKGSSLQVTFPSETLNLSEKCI

| IC50 [µM] | Compound |
| --- | --- |
| 0.581 | Cc1sc2c(C)cc(F)cc2c1CCNc1cc(-c2ccc(C(=O)O)c(OC3CCCC3)c2)ncn1 [Example 152, 2-Cyclopentyloxy-4-{6-[2-(5-fluoro-2,7-dimethyl-benzo[b]thiophen-3-yl)-ethylamino]-pyrimidin-4-yl}-benzoic acid] |
| 0.363 | CCc1nc(-c2cc(NCCc3c(C)sc4c(C)cc(F)cc34)ncn2)sc1C(=O)O [Example 161, 4-Ethyl-2-{6-[2-(5-fluoro-2,7-dimethyl-benzo[b]thiophen-3-yl)-ethylamino]-pyrimidin-4-yl}-thiazole-5-carboxylic acid] |
| 0.105 | CCOc1cc(-c2cc(NCCc3c(C)sc4c(C)cc(F)cc34)ncn2)sc1CCC(=O)O [Example 97, 3-(3-Ethoxy-5-{6-[2-(5-fluoro-2,7-dimethyl-benzo[b]thiophen-3-yl)-ethylamino]-pyrimidin-4-yl}-thiophen-2-yl)-propionic acid] |
| 0.108 | CCOc1cc(-c2cc(NCCc3c(C)sc4c(C)cc(F)cc34)ncn2)ccc1-c1noc(=O)[nH]1 [Example 155, 3-(2-Ethoxy-4-{6-[2-(5-fluoro-2,7-dimethyl-benzo[b]thiophen-3-yl)-ethylamino]-pyrimidin-4-yl}-phenyl)-[1,2,4]oxadiazol-5(4H)-one [tautomeric form: 3-(2-ethoxy-4-(6-((2-(5-fluoro-2,7-dimethylbenzo[b]thiophen-3-yl)ethyl)amino)pyrimidin-4-yl)phenyl)-[1,2,4]oxadiazol-5-ol]] |
| 0.624 | CCc1oc2c(C)cc(F)cc2c1CCNc1cc(-c2cc(C)c(C(=O)O)s2)ncn1 [Example 7, 5-{6-[2-(2-Ethyl-5-fluoro-7-methyl-benzofuran-3-yl)-ethylamino]-pyrimidin-4-yl}-3-methyl-thiophene-2-carboxylic acid] |
| 0.457 | CCCOc1cc(-c2cc(NCCc3c(C)sc4c(C)cc(F)cc34)ncn2)ccc1C(=O)O [Example 100, 4-{6-[2-(5-Fluoro-2,7-dimethyl-benzo[b]thiophen-3-yl)-ethylamino]-pyrimidin-4-yl}-2-propoxy-benzoic acid] |
| 0.223 | COc1ccc(Cl)c2c(CCNc3cc(-c4ccc(C(=O)O)c(OC(F)F)c4)ncn3)c(C)sc12 [Example 116, 4-{6-[2-(4-Chloro-7-methoxy-2-methyl-benzo[b]thiophen-3-yl)-ethylamino]-pyrimidin-4-yl}-2-difluoromethoxy-benzoic acid] |
| 0.296 | CCOc1cc(-c2cc(NCCc3c(C)sc4c(C)cc(F)cc34)ncn2)ccc1CC(=O)O [Example 110, (2-Ethoxy-4-{6-[2-(5-fluoro-2,7-dimethyl-benzo[b]thiophen-3-yl)-ethylamino]-pyrimidin-4-yl}-phenyl)-acetic acid] |
| 0.087 | CCOc1cc(-c2cc(NCCc3c(C)sc4c(C)ccc(F)c34)ncn2)ccc1OCC(=O)O [Example 118, (2-Ethoxy-4-{6-[2-(4-fluoro-2,7-dimethyl-benzo[b]thiophen-3-yl)-ethylamino]-pyrimidin-4-yl}-phenoxy)-acetic acid] |
| 0.013 | CCCc1cc(-c2cc(NCCc3c(C#N)sc4c(C)cc(F)cc34)ncn2)ccc1CC(=O)O [Example 170, (4-{6-[2-(2-Cyano-5-fluoro-7-methyl-benzo[b]thiophen-3-yl)-ethylamino]-pyrimidin-4-yl}-2-propyl-phenyl)-acetic acid] |
| 0.331 | CCOc1cc(-c2cc(NCCc3c(C)sc4c(C)ccc(F)c34)ncn2)cc(C)c1C(=O)O [Example 103, 2-Ethoxy-4-{6-[2-(4-fluoro-2,7-dimethyl-benzo[b]thiophen-3-yl)-ethylamino]-pyrimidin-4-yl}-6-methyl-benzoic acid] |
| 0.425 | CCOc1cc(-c2cc(NCCc3c(C)sc4c(C)cccc34)ncn2)ccc1C(C)C(=O)O (racemic) [Example 126, rac-2-(4-{6-[2-(2,7-Dimethyl-benzo[b]thiophen-3-yl)-ethylamino]-pyrimidin-4-yl}-2-ethoxy-phenyl)-propionic acid] |
| 0.042 | Cc1cc(F)cc2c(CCNc3cc(-c4ccc(CC(=O)O)c(OC(C)C)c4)ncn3)c(C#N)sc12 [Example 171, (4-{6-[2-(2-Cyano-5-fluoro-7-methyl-benzo[b]thiophen-3-yl)-ethylamino]-pyrimidin-4-yl}-2-isopropoxy-phenyl)-acetic acid] |
| 0.795 | Cc1oc2ccccc2c1CCNc1cc(-c2ccc(C(=O)O)c(SC3CCC3)c2)ncn1 [Example 129, 2-Cyclobutylsulfanyl-4-{6-[2-(2-methyl-benzofuran-3-yl)-ethylamino]-pyrimidin-4-yl}-benzoic acid] |
| 0.054 | CCOc1cc(-c2cc(NCCc3c(C)sc4c(OC)ccc(F)c34)ncn2)ccc1OCC(=O)O [Example 117, (2-Ethoxy-4-{6-[2-(4-fluoro-7-methoxy-2-methyl-benzo[b]thiophen-3-yl)-ethylamino]-pyrimidin-4-yl}-phenoxy)-acetic acid] |
| 0.017 | CCOc1cc(-c2cc(NCCc3c(C#N)sc4c(OC)cccc34)ncn2)ccc1CC(=O)O [Example 164, (4-{6-[2-(2-Cyano-7-methoxy-benzo[b]thiophen-3-yl)-ethylamino]-pyrimidin-4-yl}-2-ethoxy-phenyl)-acetic acid] |
| 0.45 | CCCOc1cc(-c2cc(NCCc3c(C)sc4c(C)c(F)ccc34)ncn2)ccc1C(=O)O [Example 99, 4-{6-[2-(6-Fluoro-2,7-dimethyl-benzo[b]thiophen-3-yl)-ethylamino]-pyrimidin-4-yl}-2-propoxy-benzoic acid] |
| 0.369 | Cc1sc2c(C)cccc2c1CCNc1cc(-c2ccc(C(=O)O)cc2)ncn1 [Example 8, 4-{6-[2-(2,7-Dimethyl-benzo[b]thiophen-3-yl)-ethylamino]-pyrimidin-4-yl}-benzoic acid] |
| 0.123 | CCOc1cc(-c2cc(NCCc3c(C)oc4c(Cl)cccc34)ncn2)ccc1OCC(=O)O [Example 120, (4-{6-[2-(7-Chloro-2-methyl-benzofuran-3-yl)-ethylamino]-pyrimidin-4-yl}-2-ethoxy-phenoxy)-acetic acid] |
| 0.216 | COc1ccc(Cl)c2c(CCNc3cc(-c4ccc(C(=O)O)c(OC(C)C)c4)ncn3)c(C)sc12 [Example 98, 4-{6-[2-(4-Chloro-7-methoxy-2-methyl-benzo[b]thiophen-3-yl)-ethylamino]-pyrimidin-4-yl}-2-isopropoxy-benzoic acid] |
| 0.45 | CCOc1cc(-c2cc(NCCc3c(C)sc4c(C)c(F)ccc34)ncn2)ccc1CC(=O)O [Example 112, (2-Ethoxy-4-{6-[2-(6-fluoro-2,7-dimethyl-benzo[b]thiophen-3-yl)-ethylamino]-pyrimidin-4-yl}-phenyl)-acetic acid] |
| 0.549 | Cc1cc(-c2cc(NCCc3c(C)oc4ccccc34)ncn2)sc1C(=O)O [Example 6, 3-Methyl-5-{6-[2-(2-methyl-benzofuran-3-yl)-ethylamino]-pyrimidin-4-yl}-thiophene-2-carboxylic acid] |

| Compound | IC50 [µM] |
| --- | --- |
| COc1ccc(F)c2c(CCNc3cc(-c4ccc(C(=O)O)c(OC5CCC5)c4)ncn3)c(C)oc12 [Example 139, 2-Cyclobutoxy-4-{6-[2-(4-fluoro-7-methoxy-2-methyl-benzofuran-3-yl)-ethylamino]-pyrimidin-4-yl}-benzoic acid] | 0.481 |
| CCCCOc1cc(-c2cc(NCCc3c(C)sc4c(C)cc(F)cc34)ncn2)cc(F)c1C(=O)O [Example 144, 2-Butoxy-6-fluoro-4-{6-[2-(5-fluoro-2,7-dimethyl-benzo[b]thiophen-3-yl)-ethylamino]-pyrimidin-4-yl}-benzoic acid] | 0.112 |
| COc1cc(Cl)cc2c(CCNc3cc(-c4ccc(C(=O)O)c(OC5CCC5)c4F)ncn3)c(C)oc12 [Example 147, 4-{6-[2-(5-Chloro-7-methoxy-2-methyl-benzofuran-3-yl)-ethylamino]-pyrimidin-4-yl}-2-cyclobutoxy-3-fluoro-benzoic acid] | 0.889 |
| Cc1sc2c(C)ccc(F)c2c1CCNc1cc(-c2ccc(C(=O)O)c(OC3CCC3)c2)ncn1 [Example 136, 2-Cyclobutoxy-4-{6-[2-(4-fluoro-2,7-dimethyl-benzo[b]thiophen-3-yl)-ethylamino]-pyrimidin-4-yl}-benzoic acid] | 0.411 |
